Test results reported in patent US8513292B2, “Compositions and methods for the treatment of cancer” (ArQule, Inc., priority 2007, dated 2013).
Where a SMILES comes first, the peptide text is derived from it. The star is where a group is joined. Cbz = O=C(OCc1ccccc1)*; CH2F = FC*

Key:
HT29 cells [1] = experiment: MTS assay; type: cell-based; details: Homo sapiens, HT-29, compound for 24 hours, then drug-free medium for additional 48 hours, MTS readout
Experimental: HT29 cells were seeded in 96-well plates at 1,800 cells/well overnight in medium with 10% FBS. The next day, cells were treated with increasing concentrations of compounds for 24 hours at 37° C. After the treatments, the compound-containing medium was removed, cells were washed twice with PBS, and incubated in drug-free medium containing 10% FBS for an additional 48 hours. After addition of MTS and PMS for 4 hours at concentrations of 2 mg/mL and 0.92 mg/mL, respectively, the results were quantitated by spectrophotometry at λ=490 nm and IC50 for each compound was determined

[2] = target: T1, Recombinant unphosphorylated c-Met comprising residues 1038-1346 (Homo sapiens, UniProt P08581); experiment: c-Met p33 kinase assay (33P-ATP, IGF-1 Rtide substrate); type: biochemical; details: 15 minutes preincubation, 100 μM ATP, 30 minutes reaction
T1 construct: The DNA fragment encoding the kinase domain (1038-1346) was inserted into Novagen vector pet28a; six-histidine tag (N); made in house; host or cells: E. coli BL21(DE3)RIL
Source text: cDNA of full-length c-Met purchased from Origen Technologies was used as template for PCR amplification. The DNA fragment encoding the kinase domain (1038-1346) was inserted into Novagen vector pet28a between Nco1 and Sal1 sites. The primers were designed to contain a six-histidine tag to the N-terminus. In order to express dephosphorylated c-Met kinase protein, a tyrosine phosphatase PTP1B (1-283) was sequentially ligated into the made construct between SalI and Nod sites. A second ribosome binding site was incorporated in the PTP1B primer after the SalI site. The N-terminal His-tagged proteins were expressed in Circlegrow broth (Q-Biogen). The transformed E. Coli cell line BL21(DE3)RIL (Stratagene) was cultured to OD=0.8 at 37° C. and induced with 0.3 mM of IPTG for overnight at 12° C. The co-expressed protein was purified by metal-chelation chromatography followed by anion and cation columns. In brief, 4 liters of cells were lysed by sonication in 140 ml buffer containing 20 mM MOPS pH=6.5, 200 mM NaCl, 7.5% glycerol, 0.1% Igepal, supplied with 1 mM PMSF. The supernatant was obtained by centrifugation at 50,000 g for 30 minutes and followed by incubation with 8 mL of Ni-NTA His Bind resin (Novagen) at 4° C. for one hour. A second step 50 mL wash buffer (with 100 mM NaCl and 5 mM imidazole) was applied after initial wash with the lysis buffer. Protein was eluted by 200 mM imidazole pH=8.5, 100 mM NaCl and 7.5% glycerol and directly cleared by passing 10 mL QFF column. The salt concentration and the pH value of the protein flow through were adjusted to 50 mM and 7.5 by dilution, and then loaded to 1 mL SP FF column. The protein was further gel-filtered in an equilibrium buffer of 20 mM TrisHCl pH=8.5, 150 mM NaCl, 7.5% glycerol and 2 mM DTT. The monomeric unphosphorylated c-Met protein was concentrated to 30 mg/mL for storage at −80° C.
Recombinant unphosphorylated c-Met comprising residues 1038-1346 (12.5 ng) was pre-incubated with increasing concentrations of compounds for 15 minutes at room temperature. […]

HT29 cells [3] = experiment: Cell death by Annexin V-Fluos staining after siRNA transfection, high content imaging; type: cell-based; details: increasing concentrations of caspase inhibitor for 1 additional day after transfection
Experimental: Exponentially growing HT29 cells were plated in black 96-well plates at 5,000 cells/well overnight in medium with 10% FBS. The next day, cells were transiently transfected for 2 days using DharmaFECT 4 reagent with a pool of four met-specific 21-nucleotide RNA oligonucleotides forming a 19-bp duplex core with 2-nucleotide 3′ overhang in combination (Dharmacon, Inc., Lafayette, Colo.). Transfection of gapdh siRNA (Dharmacon, Inc.) and of a non-targeting siRNA under the same conditions was done in parallel as controls (Dharmacon, Inc.). Cells were then incubated in the absence or the presence of increasing concentrations of ZvAD-FMK, an irreversible caspase inhibitor for 1 additional day. Cells were incubated for at least 10 minutes in a labeling solution (10 mM HEPES, 140 mM NaCl and 6 mM CaCl2) containing 2 μg/ml Hoechst 33342 (blue channel; Molecular Probes/Invitrogen Corp., Natick, Mass.), 500 times diluted Annexin V-Fluos (green channel; Roche Applied Science, Indianapolis, Ind.) and 1 μg/ml propidium iodide (red channel; Roche Applied Science). High content image acquisition and analysis were carried out using a Beckman Coulter IC100 Cytometer. The program was set to take four images per well. […] Images were processed and numbers of positive cells for each channel and each condition were determined using Cytoshop 2.1 software (Beckman Coulter, Inc.). […]

T1 sequence (P08581 1038-1346): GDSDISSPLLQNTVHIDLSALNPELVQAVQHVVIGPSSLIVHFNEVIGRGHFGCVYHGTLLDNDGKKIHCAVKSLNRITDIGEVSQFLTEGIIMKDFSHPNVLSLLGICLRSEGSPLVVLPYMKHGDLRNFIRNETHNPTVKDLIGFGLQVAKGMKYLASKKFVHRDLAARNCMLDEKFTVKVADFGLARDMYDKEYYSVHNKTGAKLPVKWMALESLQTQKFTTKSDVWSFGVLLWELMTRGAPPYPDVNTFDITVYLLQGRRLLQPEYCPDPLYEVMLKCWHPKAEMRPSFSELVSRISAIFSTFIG

Row | Compound | melting point [°C] | IC50 (HT29 cells [1]) [µM] | IC50 [2] [µM] | levels of cell death in met siRNA transfected cells (HT29 cells [3])
1 | O=C1NC(=O)[C@@H](c2ccccc2Cl)[C@@H]1c1cc2c3c(ccn3CCC2)c1 (racemic) [Example 22, (±)-trans-3-(2-chloro-phenyl)-4-(5,6-dihydro-4H-pyrrolo[3,2,1-ij]quinolin-8-yl)-pyrrolidine-2,5-dione] | 209 to 212 | ≤ 1 | – | –
2 | O=C1NC(=O)[C@H](c2c[nH]c3ccccc23)[C@@H]1C(=O)c1cn2c3c(cccc13)CCC2 (racemic) [Example 9, (±)-cis-3-(5,6-dihydro-4H-pyrrolo[3,2,1-ij]quinoline-1-carbonyl)-4-(1H-indol-3-yl)-pyrrolidine-2,5-dione] | 283 to 285 | 1 to 10 | ≥ 10 | –
3 | COC(=O)C[C@H](NC(=O)[C@H](C)NC(=O)[C@@H](NC(=O)OCc1ccccc1)C(C)C)C(=O)CF [ZvAD-FMK] (Cbz-Val-Ala-Asp(OMe)-CH2F) | – | – | – | decreased the levels of cell death

Now from value to compound, other results behind:

Row | melting point [°C] | IC50 (HT29 cells [1]) [µM] | IC50 [2] [µM] | Compound | levels of cell death in met siRNA transfected cells (HT29 cells [3])
4 | 195 to 200 | ≤ 1 | – | O=C1NC(=O)[C@@H](c2c[nH]c3ccc(Br)cc23)[C@@H]1c1cc2c3c(ccn3CCC2)c1 (racemic) [Example 19, (±)-trans-3-(5-bromo-1H-indol-3-yl)-4-(5,6-dihydro-4H-pyrrolo[3,2,1-ij]quinolin-8-yl)-pyrrolidine-2,5-dione] | –
5 | – | ≤ 1 | – | COc1cccc([C@@H]2C(=O)NC(=O)[C@H]2c2cc3c4c(ccn4CCC3)c2)c1 (racemic) [Example 25, (±)-trans-3-(5,6-dihydro-4H-pyrrolo[3,2,1-ij]quinolin-8-yl)-4-(3-methoxy-phenyl)-pyrrolidine-2,5-dione] | –
6 | 141 to 145 | ≤ 1 | ≥ 10 | O=C1NC(=O)[C@@H](c2cc3c4c(ccn4CCC3)c2)[C@H]1c1c[nH]c2ccccc12 (racemic) [Example 16] | –
7 | 215 to 218 | 1 to 10 | – | O=C1NC(=O)[C@@H](c2c[nH]c3ccccc23)[C@@H]1Cc1cn2c3c(cccc13)CCC2 (racemic) [Example 6, (±)-trans-3-(5,6-dihydro-4H-pyrrolo[3,2,1-ij]quinolin-1-ylmethyl)-4-(1H-indol-3-yl)-pyrrolidine-2,5-dione] | –
8 | 144 to 148 | ≤ 1 | ≥ 10 | O=C1NC(=O)[C@@H](c2cn3c4c(cccc24)CC3)[C@@H]1c1c[nH]c2ccccc12 (racemic) [Example 33, (±)-trans-3-(4,5-dihydro-pyrrolo[3,2,1-hi]indol-1-yl)-4-(1H-indol-3-yl)-pyrrolidine-2,5-dione] | –
